Structures can show the parent of a compound that is named as a salt. Where two headings read alike, the source gives them in different places.
Assays:
male broilers [1] = assay: Study 1: growth performance and carcass responses of male broilers, compounds in feed vs positive and negative controls; type: in vivo, chicken; conditions: 14 days; for change in vivo at 15 ppm, 15 µg/mL: Gallus gallus, feed or water, 336 h; for change in vivo at 15 ppm, 15 µg/mL / Ave daily live wt gain % inc. / Breast wt % inc. / Feed intake % inc. / Gain effic % inc. / Leg wt % inc. / Fat Pad wt % dec.: 15 ppm in feed ad libitum; for change in vivo at 15 ppm, 15 µg/mL / Ave daily live wt gain % inc. / Breast wt % inc. / Feed intake % inc. / Gain effic % inc. / Leg wt % inc.: percent change from negative control; for Fat Pad wt % dec.: percent decrease from negative control; for improvement versus negative control and positive control (in words): positive control = Compound 1
Description: An objective of this study is to evaluate growth performance and carcass responses of male broilers by comparing non-zero dosages of the above compounds versus a positive control (Compound 1) and negative controls. Table 1 sets out the specific treatment groups:
(§1) The route of administration is oral, with the compounds mixed in feed, and provided Ad libitum. The age of the chickens of Day 1 of the study is 35 days old. Body weights are taken on the following days: • 1) Study Day 1 (pen weight) • 2) Study Day 14 (individual animal weights) • 3) Study Day 15 (individual weights on selected animals) • 4) Study Day 16 (blocks 1-5) • 5) Study Day 17 (blocks 6-10).
(§2) Following collection of final weights, the following processing data is collected (hot weights) on individual animals: • 1) Live weight • 2) Hot carcass weight • 3) Fat pad weight • 4) Hot breast muscle weight • 5) Hot bone in leg weight

male broilers [2] = assay: Study 2: growth performance and carcass responses of male broilers, compounds in feed in the last 14 days prior to slaughter; type: in vivo, chicken
Method: Compounds 2, 5, and 9 are used in this study. The study is conducted to evaluate growth performance and carcass responses of male broilers by comparing non-zero dosages of the compounds, versus negative control, administered in the last 14 days prior to slaughter. Table 3 sets out the specific treatment groups.
as §1, with “15” for “14”, “16” for “15”, “animals in animals in blocks 1-4)” for “animals)”, “Day” for “Day 16 (blocks 1-5) • 5) Study Day”, “(individual weights on selected animals in animals in blocks 5-8)” for “(blocks 6-10).”
as §2

[3] = male broilers 35 days old at Day 1, * in cell = not significant vs negative control, read-out: ADG % inc.
[4] = male broilers, * in cell = not significant, read-out: Hot carcass wt % inc.
[5] = male broilers, * in cell = not significant

SMILES	change in vivo at 15 ppm, 15 µg/mL (male broilers [1]; [3]) [%]	change in vivo at 15 ppm, 15 µg/mL (male broilers [1]; [4]) [%]	Ave daily live wt gain % inc. (male broilers [1]; [5]) [%]	Breast wt % inc. (male broilers [1]; [5])	Feed intake % inc. (male broilers [1]; [5])	Gain effic % inc. (male broilers [1]; [5])	Leg wt % inc. (male broilers [1]; [5])	Fat Pad wt % dec. (male broilers [1]; [5])	further results
CC(C)(Cc1ccc(Oc2ccc(C(=O)O)cc2)cc1)NC[C@H](O)COc1cccc(O)c1 (stereo in doubt) [Compound 8, 4-[4-(2-{[2-hydroxy-3-(3-hydroxyphenoxy)propyl]amino}-2-methylpropyl)phenoxy]benzoic acid dihydrochloride]	-0.4	0.8							
CC(C)(Cc1ccc(Oc2ncccc2C#N)cc1)NC[C@H](O)COc1ccccc1-c1cccs1 [Compound 1, 2-[4-(2-{[(2S)-2-hydroxy-3-(2-thiophen-2-ylphenoxy)propyl]amino}-2-methylpropyl)phenoxy]pyridine-3-carbonitrile, reference compound]	4.4	2.4	4.0	3.5* %	2.7%	1.6* %	1.2* %	9.8* %	growth performance parameters improved (in words) (male broilers [1]; 15 ppm in feed, vs negative control): improved ADG, feed intake, average daily live weight gain only
CC(C)(Cc1ccc(Oc2ccc(C(=O)N3CCOCC3)cn2)cc1)NC[C@H](O)COc1cccc2[nH]ncc12 [Compound 2, (2S)-1-{[1,1-dimethyl-2-(4-{[5-(morpholin-4-ylcarbonyl)pyridin-2-yl]oxy}phenyl)ethyl]amino}-3-(1H-indazol-4-yloxy)propan-2-ol]	8.7	6.1	8.3	6.1%	4.8%	3.8%	8.2%	12.8* %	fat pad weight (in words) (male broilers [1]; 15 ppm in feed): reduce fat pad weight; feed intake (in words) (male broilers [1]; 15 ppm in feed): significant increase in feed intake; gain versus untreated control (in words) (male broilers [1]; 15 ppm in feed): significantly greater than untreated control; improvement versus negative control and positive control (in words) (male broilers [1]; 15 ppm in feed): significantly better improvement than both the negative control and the positive control; ADFI versus negative control group (male broilers [2]; 3.5 ppm in feed): significantly lower; F/G ratio (feed:gain efficiency) versus negative control group (male broilers [2]; 7 ppm in feed): significantly lower; G/F ratio (gain:feed efficiency) versus negative control group (male broilers [2]; 7 ppm in feed): significantly higher; hot bone-in leg weight versus negative control group (male broilers [2]; 7 ppm in feed): significantly higher; hot breast muscle weight versus negative control group (male broilers [2]; 7 ppm in feed): significantly higher; hot carcass weight versus negative control group (male broilers [2]; 7 ppm in feed): significantly higher
CC(C)(Cc1ccc(Oc2ccc(S(C)(=O)=O)cc2)cc1)NC[C@H](O)COc1cccc2[nH]c(=S)[nH]c12 [Compound 3, 4-({(2S)-3-[(1,1-dimethyl-2-{4-[4-(methylsulfonyl)phenoxy]phenyl}ethyl)amino]-2-hydroxypropyl}oxy)-1,3-dihydro-2H-benzimidazole-2-thione]	1.6	2.7							
CC(C)(Cc1ccc(Oc2ncccc2C(N)=O)cc1)NC[C@H](O)COc1ccccc1-c1cc2ccccc2[nH]1 [Compound 4, 2-{4-[2-({(2S)-2-hydroxy-3-[2-(1H-indol-2-yl)phenoxy]propyl}amino)-2-methylpropyl]phenoxy}pyridine-3-carboxamide]	-1.6	0.3							
CC(C)(Cc1ccc(Oc2ccc(C(=O)N3CCOCC3)cn2)cc1)NC[C@H](O)COc1cccc2[nH]ccc12 [Compound 6, (2S)-1-{[1,1-dimethyl-2-(4-{[5-(morpholin-4-ylcarbonyl)pyridin-2-yl]oxy}phenyl)ethyl]amino}-3-(1H-indol-4-yloxy)propan-2-ol]	3.9	3.8							
CC(C)(Cc1ccc(Oc2ccc(S(C)(=O)=O)cc2S(C)(=O)=O)cc1)NC[C@H](O)COc1cccc2[nH]c(C(N)=O)cc12 [Compound 7, 4-({(2S)-3-[(2-{4-[2,4-bis(methylsulfonyl)phenoxy]phenyl}-1,1-dimethylethyl)amino]-2-hydroxypropyl}oxy)-1H-indole-2-carboxamide]	2	1.2							
CC(C)(Cc1ccc(Oc2ncccc2C(N)=O)cc1)NC[C@H](O)COc1cccc2[nH]ncc12 [Compound 9, 2-[4-(2-{[(2S)-2-hydroxy-3-(1H-indazol-4-yloxy)propyl]amino}-2-methylpropyl)phenoxy]pyridine-3-carboxamide]	8.9	5	9.3	4.8%	2.1* %	6.7%	7.9%	17.8%	fat pad weight (in words) (male broilers [1]; 15 ppm in feed): reduce fat pad weight; feed intake (in words) (male broilers [1]; 15 ppm in feed): significant increase in feed intake; gain versus untreated control (in words) (male broilers [1]; 15 ppm in feed): significantly greater than untreated control; significance of the fat pad weight difference (male broilers [1]; 15 ppm in feed): significant; improvement versus negative control and positive control (in words) (male broilers [1]; 15 ppm in feed): significantly better improvement than both the negative control and the positive control; F/G ratio (feed:gain efficiency) versus negative control group (male broilers [2]; 3.5 ppm in feed): significantly lower; G/F ratio (gain:feed efficiency) versus negative control group (male broilers [2]; 3.5 ppm in feed): significantly higher; hot bone-in leg weight versus negative control group (male broilers [2]; 3.5 ppm in feed): significantly higher; hot breast muscle weight versus negative control group (male broilers [2]; 3.5 ppm in feed): significantly higher; hot carcass weight versus negative control group (male broilers [2]; 3.5 ppm in feed): significantly higher; ADFI versus negative control group (male broilers [2]; 7 ppm in feed): significantly higher; ADG versus negative control group (male broilers [2]; 7 ppm in feed): significantly higher; F/G ratio (feed:gain efficiency) versus negative control group (male broilers [2]; 7 ppm in feed): significantly lower; G/F ratio (gain:feed efficiency) versus negative control group (male broilers [2]; 7 ppm in feed): significantly higher; hot bone-in leg weight versus negative control group (male broilers [2]; 7 ppm in feed): significantly higher; hot breast muscle weight versus negative control group (male broilers [2]; 7 ppm in feed): significantly higher; hot carcass weight versus negative control group (male broilers [2]; 7 ppm in feed): significantly higher
